From US11364211B2, “Methods for selecting phosphatase selective and non-selective phosphatase inhibitors” (MEDICAL RESEARCH COUNCIL, priority 2015, dated 2022)

Experiments:
[1] = target: T1, PPP1R15B-PP1 complex (Homo sapiens, UniProt Q5SWA1); assay: SPR steady-state binding to R15B-PP1c holophosphatase on streptavidin chip; conditions: for Kd: SPR, steady-state affinity
T1 construct: 340-698 of PPP1R15B were His-tagged and cloned into pMAL-c5x; made in house; host or cells: R15B fragment: E. coli BL21-Gold; BAP-PP1γ: Sf9 insect cells (baculovirus)
T1 sequence (Q5SWA1 340-698): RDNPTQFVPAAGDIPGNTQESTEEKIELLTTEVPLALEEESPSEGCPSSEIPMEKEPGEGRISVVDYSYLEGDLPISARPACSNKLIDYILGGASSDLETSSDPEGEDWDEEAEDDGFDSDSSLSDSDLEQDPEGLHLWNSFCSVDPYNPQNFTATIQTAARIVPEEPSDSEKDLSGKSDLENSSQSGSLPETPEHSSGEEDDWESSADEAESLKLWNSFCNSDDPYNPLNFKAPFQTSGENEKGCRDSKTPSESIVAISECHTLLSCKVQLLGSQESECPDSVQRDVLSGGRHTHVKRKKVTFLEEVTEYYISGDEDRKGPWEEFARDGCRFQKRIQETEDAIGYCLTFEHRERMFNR
T1 sequence (P36873 whole entry partner, the tested form may be a part): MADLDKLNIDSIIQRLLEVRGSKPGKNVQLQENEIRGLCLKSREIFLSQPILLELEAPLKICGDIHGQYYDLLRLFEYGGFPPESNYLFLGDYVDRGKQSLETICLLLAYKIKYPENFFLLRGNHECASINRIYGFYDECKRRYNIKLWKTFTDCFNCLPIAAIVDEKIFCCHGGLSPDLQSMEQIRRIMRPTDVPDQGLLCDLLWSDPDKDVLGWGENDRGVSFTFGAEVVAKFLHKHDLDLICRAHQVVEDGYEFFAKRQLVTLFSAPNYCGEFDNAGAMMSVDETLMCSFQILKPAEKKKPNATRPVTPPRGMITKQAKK
Method: (§1) The streptavidin coated surface was activated by 1 min injection with a solution of 50 mM NaOH and 1 M NaCl. Biotin-PP1 was diluted in the running buffer (50 mM Tris pH 7.5, 100 mM NaCl, 0.1 mM EGTA, 1 mM MnCl2, 0.05% Tween 20) and injected at approximately 300 nM concentration directly to streptavidin coated surface for 100 sec or to reach immobilization level of biotin-PP1 corresponding to ˜7000 RU. A blank immobilization was performed for one of the SA sensor chip surface to use as a reference.
(§2) With minor deviations, the same procedure and conditions were used in all binding experiments. Small molecules were stored as 50 mM stock solutions in 100% DMSO. Prior to determining binding constants, serial dilutions of either 12 or 8 concentrations of the compounds were prepared in the running buffer in a 96-well plate. […] Then, without regenerating the surface, the compound dilution series was injected onto the surface of the chip Sensorgrams were analyzed using the Biacore T200 evaluation software and the binding constants determined based on a steady-state model. Kinetic experiments are carried out using different concentrations of the compound and their respective equilibrium binding levels determined.
(§3) Surface Plasmon Resonance (SPR) was used to measure the binding affinity of compounds to the PPP1R15A/B-PP1 phosphatase complex. Biotin acceptor peptide (BAP) was fused to the N-terminus of PP1γ, which enables the biotinylation of the BAP-tagged protein in Sf9 insect cells. After purification the BAP-PP1γ protein was captured on a streptavidin sensor chip (SA-chip, GE healthcare) to a response level of ˜5.000 RU. Using controlled biotinylation enables orientated and uniform immobilization on the sensor chip surface. The PP1γ was then used to capture PPP1R15A/B and form a holophosphatase complex on the surface of the streptavidin chip. This complex can then be used to test binding of compounds. 10 μM PPP1R15A/B protein concentration was used to form the holophosphatase complex during a 80 s injection. […] After the concentration series (8 or 12 concentrations) is completed the surface is regenerated with 3 M NaCl and we can capture R15A/B again to form a fresh holophosphatase complex to measure a binding of another compound concentration series. Analysing the level of equilibrium binding as a function of concentration gives interaction affinities or steady-state binding affinity (KD).
(§4) The streptavidin coated surface was activated by 1 minute injection with a solution of 50 mM NaOH and 1 M NaCl three times at a flow rate of 10 μl/min. bio-GBZ or bio-PP1c was diluted in the running buffer (50 mM Tris pH 7.5, 100 mM NaCl, 0.1 mM EGTA, 0.05% Tween 20, 0.1% DMSO) and injected at approximately 300 nM concentration at a flow rate of 10 μl/min directly to streptavidin coated surface to reach immobilization level of bio-GBZ or bio-PP1c corresponding to ˜200 and 6000 RU, respectively. A blank immobilization was performed for one of the SA sensor chip surface to use as a reference.
With minor deviations, the same procedure and conditions were used in all binding experiments. Small molecules were stored as 50 mM stock solutions in 100% DMSO. Prior to determining binding constants, serial dilutions of either 12 or 8 concentrations of the compounds were prepared in the running buffer in a 96-well plate. […] This was followed by 1 minute stabilization period, to wash off any unspecific binding. Then, without regenerating the surface, the compound dilution series was injected onto the surface of the chip at a flow rate of 30 μl/min for 1 minute, followed by 2 minutes dissociation time. After each dilution series the surface was regenerated using 3 M NaCl for 90 seconds. […] In order to be able to correct for small variations in DMSO concentration between samples, eight solvent samples ranging from 0.06 to 8% DMSO were injected every 50th cycle. The flow cell temperature was 10° C.

[2] = target: T2, PPP1R15A-PP1 complex (Homo sapiens, UniProt O75807); assay: SPR steady-state binding to R15A-PP1c holophosphatase on streptavidin chip; conditions: steady-state affinity
T2 construct: the cDNAs encoding amino acids 325-636 of PPP1R15A; made in house; host or cells: R15A fragment: E. coli BL21-Gold; BAP-PP1γ: Sf9 insect cells (baculovirus)
T2 sequence (O75807 325-636): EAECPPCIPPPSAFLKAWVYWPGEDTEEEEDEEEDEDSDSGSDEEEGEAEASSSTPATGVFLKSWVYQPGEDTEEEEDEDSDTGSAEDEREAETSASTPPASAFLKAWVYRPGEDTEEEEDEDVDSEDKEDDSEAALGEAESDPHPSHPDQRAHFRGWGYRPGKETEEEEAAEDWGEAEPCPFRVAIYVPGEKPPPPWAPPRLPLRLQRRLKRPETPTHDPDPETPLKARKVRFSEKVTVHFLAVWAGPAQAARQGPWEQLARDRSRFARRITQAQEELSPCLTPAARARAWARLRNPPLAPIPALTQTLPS
T2 sequence (P36873 whole entry partner, the tested form may be a part): as the sequence (P36873 whole entry partner, the tested form may be a part) above
Method: as §1, §2, §3, §4
(§5) With minor deviations, the same procedure and conditions were used in all binding experiments. Small molecules were stored as 50 mM stock solutions in 100% DMSO. Prior to determining binding constants, serial dilutions of either 12 or 8 concentrations of the compounds were prepared in the running buffer in a 96-well plate. […] This was followed by 1 minute stabilization period, to wash off any unspecific binding. […]

[3] = target: T3, PP1c (Homo sapiens, UniProt P36873); assay: SPR binding to PP1c alone immobilized on chip; conditions: PP1c alone, read-out: affinity (KD) for PP1
T3 sequence (P36873 whole entry): as the sequence (P36873 whole entry partner, the tested form may be a part) above
Method: as §4
as §5, with “binding. Then, without regenerating the surface, the compound dilution series was injected onto the surface of the chip at a flow rate of 30 μl/min for 1 minute, followed by 2 minutes dissociation time.” for “binding.”
Kinetic experiments are carried out using different concentrations of the compound and their respective equilibrium binding levels determined.

[4] = target: T3, PP1c; assay: PP1c catalytic activity assay (EnzChek); assay type: biochemical; conditions: purified PP1c 30 nM, 30 minutes at 4° C.
Method: Residual activity of PP1c was then measured using the EnzChek Phosphatase Assay Kit (Thermo Fisher Scientific) according to the supplier's instructions.

Row | difference in affinities between PPP1R15A-PP1 and PPP1R15B-PP1 ([1]; from SPR KD values) | Kd [2] [µM] | SMILES | Kd [1] [µM] | Kd [3] [µM] | inhibition of PP1c in enzymatic assay [4]
1 | greater than 30 fold | 5 | N=C(N)N/N=C/c1ccc(F)cc1Cl [Example 2, (E)-2-(2-chloro-4-fluorobenzylidene)hydrazine-1-carboximidamide] | 0.143 |  | 
2 |  |  | COC[C@@H]([C@H](O)[C@H](O)C(=O)NCC[C@H](C)c1nc(/C=C/C[C@@H]2O[C@]3(C[C@@H](O)[C@@H]2C)O[C@H]([C@H](C[C@H](O)[C@H](C)[C@H](O)[C@H](C)/C=C(C)/C(C)=C/C=C/C(C)=C\C#N)OC)[C@H](OP(=O)(O)O)C3(C)C)co1)N(C)C [calyculin A, reference compound] |  |  | a catalytic inhibitor of PP1
3 |  | 3.93 | N=C(N)N/N=C/c1cc(Cl)c(Cl)c(Cl)c1 [Example 3, (E)-2-(3,4,5-trichlorobenzylidene)hydrazine-1-carboximidamide] |  |  | 

Row | SMILES | difference in affinities between PPP1R15A-PP1 and PPP1R15B-PP1 ([1]; from SPR KD values) | Kd [2] [µM] | Kd [1] [µM] | Kd [3] [µM] | inhibition of PP1c in enzymatic assay [4]
4 | O=C(/C=C/c1ccccc1)NC(NC(=S)Nc1cccc2cccnc12)C(Cl)(Cl)Cl (centres unmarked) [Salubrinal] |  | > 20 | > 20 | > 20 | 
